Source: US20140227357A1, “FILL FORMULATIONS AND CAPSULES AND METHOD OF USE TO AVOID MIGRATION OF FILL INTO OR THROUGH THE SHELL” (CAPSUGEL BELGIUM NV, priority 2011, published 2014)

Assay: Technical batch stability study, 2-butanol and 2-pentanone assay by gas chromatography
Assay type: physicochemical
Conditions: in Formulation 4, sealed LICAPS

CCCC(C)=O [Formulation 2-pentanone, 2-pentanone]
assay, % label claim (6 months at 25° C./60% RH in PET/Alu/PE bags): 100.3%
assay, % label claim (6 months at 40° C./75% RH in PET/Alu/PE bags): 99.8%
